≈ marks a conversion by molar mass, not a printed value. Structures can show the parent of a compound that is named as a salt.
Columns and labels:
[1] = tested on: K562; test: cells; format: functional, cell-based; settings: Homo sapiens
Description: Antileukemic activity against human K562 cells assessed as inhibition of cell growth incubated for 48 to 72 hrs by MTT assay

[2] = tested on: CCRF-CEM; test: cells; format: functional, cell-based; settings: Homo sapiens
Description: Antileukemic activity against human CEM cells assessed as inhibition of cell growth incubated for 48 to 72 hrs by MTT assay

[3] = tested on: IMR-32; test: cells; format: functional, cell-based; settings: Homo sapiens, IMR-32, 0.5 h
Description: Cytotoxicity against human IMR-32 cells assessed as inhibition of cell growth incubated for 30 mins by SRB assay

[4] = tested on: HepG2; test: cells; format: functional, cell-based; settings: Homo sapiens, HepG2, 48 h
Description: Antiproliferative activity against human HepG2 cells assessed as reduction in cell viability incubated for 48 hrs by MTT spectrophotometric assay

[5] = tested on: L1210; test: cells; format: functional, cell-based; settings: Mus musculus, L1210, 48 h
[6] = cells; format: functional, cell-based, Molt 4/C8; settings: Homo sapiens, Molt4/C8, 48 h
[7] = tested on: MCF7; test: cells; format: functional; settings: Homo sapiens, time 48 hrs
Description: Growth inhibition at human MCF7 cells incubated for 48 hrs by SRB assay

[8] = tested on: A549; test: cells; format: functional, cell-based; settings: Homo sapiens, A549, 48 h
[9] = tested on: SK-N-SH; test: cells; format: functional, cell-based; settings: Homo sapiens, 48 h
[10] = tested on: KM12; test: cells; format: functional, cell-based; settings: Homo sapiens, KM12, 48 h
[11] = tested on: HCT-116; test: cells; format: functional, cell-based; settings: Homo sapiens, HCT-116, 48 h
[12] = tested on: COLO 205; test: cells; format: functional, cell-based; settings: Homo sapiens, COLO 205, 0.5 h
Description: Cytotoxicity against human COLO 205 cells assessed as inhibition of cell growth incubated for 30 mins by SRB assay

[13] = tested on: PANC-1; test: cells; format: functional; settings: Homo sapiens, time 48 hrs
Description: Growth inhibition at human PANC-1 cells incubated for 48 hrs by SRB assay

[14] = tested on: SiHa; test: cells; format: functional; settings: Homo sapiens, time 48 hrs
Description: Growth inhibition at human SiHa cells incubated for 48 hrs by SRB assay

[15] = tested on: HSC-4; test: cells; format: functional; settings: Homo sapiens, time 48 hrs
Description: Cytotoxicity against human HSC-4 cells assessed as reduction in cell viability incubated for 48 hrs by MTT assay

[16] = tested on: HSC-3; test: cells; format: functional; settings: Homo sapiens, time 48 hrs
Description: Cytotoxicity against human HSC-3 cells assessed as reduction in cell viability incubated for 48 hrs by MTT assay

[17] = tested on: Ca9-22; test: cells; format: functional; settings: Homo sapiens, time 48 hrs
Description: Cytotoxicity against human Ca9-22 cells assessed as reduction in cell viability incubated for 48 hrs by MTT assay

[18] = tested on: HSC-2; test: cells; format: functional; settings: Homo sapiens, time 48 hrs
Description: Cytotoxicity against human HSC-2 cells assessed as reduction in cell viability incubated for 48 hrs by MTT assay

[19] = in vitro; settings: human, wi-38
[20] = tested on: K562; test: cells; format: functional, cell-based; settings: Homo sapiens, K562, 48 h
[21] = cells; format: functional, cell-based; settings: Homo sapiens, QBC939, light or radiation study, 24 h
Description: Phototoxicity against human QBC939 cells assessed as inhibition of cell growth incubated for 24 hrs followed by irradiated with 54 J/cm^2 of light dose and measured after 24 hrs by MTT colorimetric assay

[22] = tested on: NCI-H3122; test: cells; format: functional, cell-based; settings: Homo sapiens
Description: Antiproliferative activity against human NCI-H3122 cells assessed as inhibition of cell proliferation

[23] = tested on: SW-620; test: cells; format: functional, cell-based; settings: Homo sapiens, SW-620, 48 h
[24] = tested on: HCC 2998; test: cells; format: functional, cell-based; settings: Homo sapiens, HCC 2998, 48 h
[25] = tested on: CCRF-CEM; test: cells; format: functional, cell-based; settings: Homo sapiens, 48 h
[26] = tested on: P388; test: cells; format: functional, cell-based; settings: Mus musculus, P388, 48 h
[27] = tested on: REH; test: cells; format: functional, cell-based; settings: Homo sapiens
Description: Antiproliferative activity against human REH cells assessed as inhibition of cell proliferation incubated for 48 to 72 hrs by MTT assay

[28] = tested on: K562; test: cells; format: functional, cell-based; settings: Homo sapiens; remark: listed apart in the source
Description: Antiproliferative activity against human K562 cells assessed as inhibition of cell proliferation incubated for 48 to 72 hrs by MTT assay

[29] = tested on: SNB-19; test: cells; format: functional; settings: Homo sapiens, time 72 hrs, read-out: ED50 (the source's name)
Description: Antiproliferative activity against human SNB-19 cells assessed as cell growth inhibition incubated for 72 hrs by WST-1 assay

[30] = animal or person; format: functional, organism-based; settings: Homo sapiens, QBC939, light or radiation study, 336 h
[31] = tested on: HCT-15; test: cells; format: functional, cell-based; settings: Homo sapiens, HCT-15, 48 h
[32] = tested on: HT-29; test: cells; format: functional, cell-based; settings: Homo sapiens, HT-29, 48 h
[33] = tested on: COLO 205; test: cells; format: functional, cell-based; settings: Homo sapiens, COLO 205, 48 h
[34] = tested on: IMR-32; test: cells; format: functional; settings: Homo sapiens, time 48 hrs
Description: Growth inhibition at human IMR-32 cells incubated for 48 hrs by SRB assay

[35] = tested on: MDA-MB-231; test: cells; format: functional; settings: Homo sapiens, time 48 hrs
Description: Growth inhibition at human MDA-MB-231 cells incubated for 48 hrs by SRB assay

[36] = tested on: BEL-7404 tumor cell line; test: cells; format: functional, cell-based; settings: Homo sapiens, BEL-7404, 72 h
Description: Antiproliferative activity against human BEL-7404 tumor cell line assessed as inhibition of cell proliferation incubated for 72 hrs by MTT assay

COc1ccc(C(=O)c2ccc(OCC(=O)N3CCC(CCCC4CCN(C(=O)Nc5ccc(Cl)cc5)CC4)CC3)cc2)c(OC)c1
IC50 [1]: 1.6 µM | IC50 [2]: 2 µM

COc1cccc2c1C(=O)c1c(O)c3c(c(O)c1C2=O)C[C@@](O)(C(=O)CO)C[C@@H]3O[C@H]1C[C@H](N)[C@H](O)[C@H](C)O1 [DOXORUBICIN HYDROCHLORIDE]
IC50 [3]: 1.7 µM

O=C(NC1CCN(Cc2c(F)cccc2F)CC1)c1ccc(Oc2ccccc2)cc1
IC50 [4]: 0.25 µM

O=C1/C(=C/c2ccccc2)CN(C(=O)c2ccc(/C=C/C(=O)c3ccc(O)cc3)cc2)C/C1=C\c1ccccc1
IC50 [5]: 5.34 µM | IC50 [6]: 1.6 µM

O=C(/C=C/c1ccc(Cl)cc1)c1ccc(OCCN2CCCCC2)cc1
GI50 [7]: < 10 µM

COC(=O)C1C(=O)CC(c2ccc(OC)cc2)N(c2ccccc2)C1c1ccc(OC)cc1 (stereo not drawn)
IC50 [8]: 27 µM | IC50 [9]: 11 µM

CCN1CC[C@@](O)(c2ccc(Oc3ccc(Cl)cc3)cc2)[C@H](C(=O)c2ccc(Oc3ccc(Cl)cc3)cc2)C1
IC50 [10]: 2.57 µM | IC50 [11]: 3.8 µM

CN1O[C@@H](c2ccccc2)[C@@H]2CN(c3ccccc3)c3oc4ccccc4c(=O)c3[C@@H]21
IC50 [12]: 12.6 µM

COc1ccc(CNC(=O)NC2CCN(c3cc(-c4ccc(OC)cc4F)ncn3)CC2)cc1
GI50 [13]: 0.47 µM

O=C(/C=C/c1ccccc1)c1ccc(OCCN2CCCCC2)cc1
GI50 [7]: < 10 µM

O=C(/C=C/c1ccc(OCCN2CCCCC2)cc1)c1ccc(F)cc1
GI50 [7]: < 10 µM

COC(=O)c1ccc(NC(=O)NC2CCN(c3cc(-c4ccc(OC)cc4F)ncn3)CC2)cc1
GI50 [14]: 0.22 µM

COc1cc(/C=C2\Cc3ccccc3C2=O)cc(CN2CCCCC2)c1O
CC50 [15]: 9.9 µM | CC50 [16]: 8.4 µM | CC50 [17]: 6.5 µM | CC50 [18]: 7.7 µM

O=C(/C=C/c1ccccc1)c1ccc(OCCN2CCCC2)cc1
GI50 [7]: < 10 µM

COc1cc(/C=C/C(=O)N2CCC=C(Cl)C2=O)cc(OC)c1OC
IC50 at 48 h [19]: > 60 µM

O=c1[nH]cc(F)c(=O)[nH]1 [FLUOROURACIL]
IC50 [12]: 27.7 µM | IC50 [20]: 8.48 µg/mL (≈ 65.2 µM)

COC(C)c1c(C)c2cc3nc(cc4[nH]c(cc5nc(cc1[nH]2)C(C)=C5CCC(=O)O)c(CCC(=O)O)c4C)C(C)=C3C(C)O (stereo not drawn)
IC50 [21]: 9.46 µM

COc1cc(C2CCN(C(=O)CO)CC2)ccc1Nc1ncc(C(F)(F)F)c(Nc2ccc(C3CCN(C(=O)CO)CC3)cc2OC)n1
IC50 [22]: 0.046 µM

COc1ccc(C(=O)c2ccc(OCC(=O)N3CCC(CCCC4CCN(C(=O)Nc5ccc(F)cc5)CC4)CC3)cc2)c(OC)c1
IC50 [1]: 2.2 µM | IC50 [2]: 2.3 µM

CCN1CC[C@@](O)(c2ccc(Oc3ccccc3)cc2)[C@H](C(=O)c2ccc(Oc3ccccc3)cc2)C1
IC50 [23]: 6.61 µM | IC50 [24]: 12 µM

O=C1/C(=C/c2ccccc2)CN(C(=O)c2ccc(/C=C/C(=O)c3ccccc3)cc2)C/C1=C\c1ccccc1
IC50 [25]: 1.58 µM

COc1ccc(C(=O)c2ccc(OCC(=O)N3CCC(CCCC4CCN(C(=S)Nc5ccc(Cl)cc5)CC4)CC3)cc2)c(OC)c1
IC50 [1]: 2.1 µM | IC50 [2]: 2.1 µM

O=C1/C(=C/c2ccccc2)CN(C(=O)c2ccc(/C=C/C(=O)c3ccc([N+](=O)[O-])cc3)cc2)C/C1=C\c1ccccc1
IC50 [26]: 0.221 µM

O=C(c1ccc(F)c([N+](=O)[O-])c1)N1CCC(CCCC2CCNCC2)CC1
IC50 [27]: 2.3 µM | IC50 [28]: 2 µM

Cn1cnc2nc(SCCN3CCCCC3)nc(SCCN3CCCCC3)c21
EC50 [29]: 9.18 µg/mL (≈ 21.8 µM)

COc1ccc(/C2=C3\C=CC(=N3)/C(c3ccc(OC)cc3)=c3/cc/c([nH]3)=C(\c3ccc(OC)cc3)C3=NC(C(N4CCCCC4)=C3)C(c3ccc(OC)cc3)c3ccc2[nH]3)cc1 (stereo not drawn)
IC50 [30]: 5.48 µM

CCN1CC[C@@](O)(c2ccc(Oc3ccc(C)cc3)cc2)[C@H](C(=O)c2ccc(Oc3ccc(C)cc3)cc2)C1
IC50 [31]: 3.98 µM | IC50 [32]: 3.31 µM | IC50 [33]: 12 µM

COc1ccc(/C=C/C(=O)c2ccc(OCCN3CCCCC3)cc2)cc1
GI50 [7]: < 10 µM

O=C(Nc1ccccc1)NC1CCN(c2cc(-c3ccc(Oc4ccccc4)cc3)ncn2)CC1
GI50 [34]: 0.65 µM

COc1ccc(CNC(=O)NC2CCN(c3cc(-c4ccc(Oc5ccccc5)cc4)ncn3)CC2)cc1
GI50 [35]: 0.2 µM

O=C(/C=C/c1ccc(OCCN2CCCCC2)cc1)c1ccccc1
GI50 [7]: < 10 µM

c1cc2c(cc1CN1CCC(=NN=C3CCN(Cc4ccc5c(c4)OCO5)CC3)CC1)OCO2
IC50 [20]: 6.35 µg/mL (≈ 13.7 µM)

CCOC(=O)C12CC3CC(C1)CC(C(=O)OC1CC(C)(C)N(O)C(C)(C)C1)(C3)C2
IC50 [36]: 4.33 µM

CN1OC[C@@H]2CN(c3ccccc3)c3oc4cc(Cl)ccc4c(=O)c3[C@@H]21
IC50 [3]: 10.1 µM
